Test results taken from ChEMBL document CHEMBL1201862, “PubChem BioAssay data set” (2004).
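Compound exposure: 48 hours, 5 concentrations, 96-well plates. GI50 marks 50% less growth.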 Calls of active or inactive are those of the source. Rule as the data show it: active = GI50 up to about 1.1 µM and inactive = higher.

Columns and labels:
Test in all cases: DTP human tumour cell line panel, 48 h
DLD-1 = tested on: DLD-1
DMS-273 = tested on: DMS-273
HOP-18 = tested on: HOP-18
KM-20L2 = tested on: KM-20L2
LXFL 529 = tested on: LXFL 529
M19-MEL = tested on: M19-MEL
RXF 631 = tested on: RXF 631
SNB-78 = tested on: SNB-78
XF498 = tested on: XF498

Measured: GI50

COC(=O)C(=O)C(C(=O)C=C(C)C)C(=O)C(=O)Nc1ccc(Cl)cc1C (stereo not drawn)
inactive: DLD-1 > 100 µM | DMS-273 35.6 µM | HOP-18 > 100 µM | KM-20L2 > 100 µM | LXFL 529 > 100 µM | M19-MEL > 100 µM | RXF 631 > 100 µM

O=C(CCN1CCCCC1CCO)Nc1ccc2c(c1)C(=O)c1ccc(NC(=O)CCN3CCCCC3CCO)cc1C2=O (stereo not drawn)
inactive: DLD-1 2.19 µM | DMS-273 2.83 µM | HOP-18 2.25 µM | KM-20L2 20.1 µM | LXFL 529 2.32 µM | M19-MEL 26.4 µM | SNB-78 3.2 µM

CC1(C)C2CCC13C(=O)C1OC3(C2)C2C(=O)N(c3ccccc3)C(=O)C12 (stereo not drawn)
inactive: DMS-273 > 100 µM | HOP-18 > 100 µM | KM-20L2 > 100 µM | LXFL 529 > 100 µM | RXF 631 > 100 µM | SNB-78 > 100 µM

N=C(c1ccccc1)N1CCCCC1
inactive: DLD-1 > 100 µM | DMS-273 > 100 µM | HOP-18 > 100 µM | KM-20L2 > 100 µM | LXFL 529 > 100 µM | M19-MEL > 100 µM | SNB-78 > 100 µM

CC(C)(C)c1ccccc1NS(=O)(=O)c1ccccc1
inactive: DMS-273 > 100 µM | KM-20L2 94 µM | LXFL 529 > 100 µM | M19-MEL > 100 µM | RXF 631 > 100 µM | SNB-78 > 100 µM | XF498 > 100 µM

Nc1nc(-c2ccco2)cc(-c2ccco2)n1
inactive: DMS-273 5.14 µM | KM-20L2 > 100 µM | LXFL 529 > 100 µM | M19-MEL > 100 µM | XF498 > 100 µM

Cn1ncnc1CCc1ccccc1
inactive: DMS-273 > 100 µM | HOP-18 > 100 µM | KM-20L2 > 100 µM | LXFL 529 > 100 µM | M19-MEL > 100 µM | SNB-78 > 100 µM

COc1cc(Nc2cnc3ccc(N)cc3n2)cc(OC)c1OC
inactive: DMS-273 > 85.3 µM | HOP-18 39.4 µM | KM-20L2 56.6 µM | LXFL 529 56.5 µM | M19-MEL > 84.1 µM | RXF 631 > 100 µM | SNB-78 > 100 µM | XF498 11 µM

N/N=C1\c2ccccc2C2/C(=N\N)c3ccccc3C12 (stereo not drawn)
inactive: DLD-1 > 100 µM | DMS-273 > 100 µM | HOP-18 57.4 µM | KM-20L2 > 100 µM | LXFL 529 > 100 µM | M19-MEL > 100 µM

CCC(C)CNC1=C(NC(C)=O)C(=O)c2ccccc2C1=O (stereo not drawn)
inactive: DLD-1 > 100 µM | DMS-273 > 100 µM | KM-20L2 > 100 µM | LXFL 529 > 100 µM | M19-MEL 20.7 µM | SNB-78 > 100 µM | XF498 > 100 µM

COc1ccc(O)cc1C=O
inactive: DLD-1 > 100 µM | DMS-273 87.9 µM | HOP-18 > 100 µM | KM-20L2 > 100 µM | LXFL 529 77.1 µM | M19-MEL 77.1 µM | RXF 631 > 100 µM | SNB-78 > 100 µM | XF498 99.1 µM

N#CCCN(CCC#N)c1ccc(/C=C2\N=C(COc3ccc(Cl)cc3Cl)OC2=O)cc1
inactive: DLD-1 > 100 µM | DMS-273 > 100 µM | KM-20L2 > 100 µM | LXFL 529 > 100 µM | M19-MEL > 100 µM | RXF 631 > 100 µM | SNB-78 > 100 µM | XF498 > 100 µM

Cc1c(-c2nnc(-c3ccc(Cl)cc3)o2)c(=O)n(-c2ccccc2)n1C
inactive: DLD-1 > 100 µM | DMS-273 > 100 µM | HOP-18 > 100 µM | KM-20L2 > 100 µM | LXFL 529 > 100 µM | M19-MEL > 100 µM | SNB-78 > 100 µM | XF498 > 100 µM

CN(C)c1ccc(/C=C(\C#N)C(=O)c2ccccc2)cc1Br
inactive: DLD-1 67.5 µM | DMS-273 > 100 µM | HOP-18 > 100 µM | KM-20L2 > 100 µM | LXFL 529 > 100 µM | RXF 631 > 100 µM | SNB-78 > 100 µM | XF498 > 100 µM

CCCCCC/C=C1\CCC(CN2CCCC2)C1=O (stereo not drawn)
inactive: DLD-1 5.21 µM | DMS-273 12.7 µM | HOP-18 18.7 µM | KM-20L2 20.5 µM | LXFL 529 3.85 µM | M19-MEL 11.4 µM | RXF 631 20.1 µM | SNB-78 26 µM | XF498 17.4 µM

COC1=C(C)C(=O)c2c(cc3c(c2O)C(C)(CCC=C(C)C)C(C)O3)C1=O (stereo not drawn)
inactive: DLD-1 > 100 µM | DMS-273 > 57.1 µM | HOP-18 > 48.2 µM | KM-20L2 > 100 µM | LXFL 529 > 100 µM | M19-MEL 10.1 µM | SNB-78 > 100 µM | XF498 > 100 µM

CN(C)c1nnnn1-c1c(N)n(C)c(=O)n(C)c1=O
inactive: DLD-1 > 100 µM | DMS-273 > 100 µM | HOP-18 > 100 µM | KM-20L2 > 100 µM | LXFL 529 > 100 µM | M19-MEL > 100 µM | RXF 631 > 100 µM | SNB-78 > 100 µM | XF498 > 100 µM

O=C1[C@H]2ON(c3ccccc3)C(c3ccccc3Cl)[C@H]2C(=O)N1c1ccc(Cc2ccc(N3C(=O)[C@@H]4ON(c5ccccc5)C(c5ccccc5Cl)[C@@H]4C3=O)cc2)cc1 (stereo partly drawn)
inactive: DLD-1 > 100 µM | DMS-273 > 100 µM | HOP-18 > 100 µM | KM-20L2 > 100 µM | LXFL 529 > 100 µM | M19-MEL > 100 µM | SNB-78 > 100 µM

CCOc1ccccc1/N=N/c1ccc2oc(=O)c(C(=O)Nc3cccc(C)c3)cc2c1
inactive: DLD-1 24.2 µM | DMS-273 34.3 µM | KM-20L2 43.5 µM | LXFL 529 26.1 µM | M19-MEL 27 µM | RXF 631 34.5 µM | SNB-78 24.5 µM | XF498 34.6 µM

COC(=O)CC[C@]12C[C@]13CC[C@]1(C)C4C(C)C[C@]5(CC(C)C(=O)O5)OC4CC1(C)C3CCC2C(C)(C)O (stereo partly drawn)
inactive: DLD-1 51.8 µM | DMS-273 32.7 µM | HOP-18 > 100 µM | KM-20L2 > 100 µM | LXFL 529 55.2 µM | M19-MEL 48 µM | SNB-78 89.9 µM | XF498 58.6 µM

C[C@]12CCC(=O)C[C@H]1CCC(O)[C@@H]2Br (stereo partly drawn)
inactive: DLD-1 > 100 µM | DMS-273 > 100 µM | HOP-18 > 100 µM | KM-20L2 > 100 µM | LXFL 529 > 100 µM | M19-MEL > 100 µM | RXF 631 > 100 µM | XF498 > 100 µM

Oc1c2c(nc3cc4c(cc13)OCO4)-c1ccccc1CC2
inactive: DLD-1 > 100 µM | DMS-273 > 100 µM | KM-20L2 > 100 µM | LXFL 529 > 100 µM | M19-MEL > 100 µM | RXF 631 > 100 µM | XF498 > 100 µM
